Measured values as given in patent US20160051570A1, “TREATMENT OF RHEUMATOID ARTHRITIS” (Ganderland and Associates, Inc., priority 2014, published 2016).

tested on: RA; assay: Previous drug treatment of the same RA patients (patient history); format: in vivo, human; conditions: drug taken before the composition

Molecule | effect in remission of the disease
Cc1oncc1C(=O)Nc1ccc(C(F)(F)F)cc1 [arava, leflunomide] | without any real effect
CN(Cc1cnc2nc(N)nc(N)c2n1)c1ccc(C(=O)N[C@@H](CCC(=O)O)C(=O)O)cc1 [methotrexate] | without any real effect
C[C@]12C=CC(=O)C=C1CC[C@@H]1[C@@H]2C(=O)C[C@@]2(C)[C@H]1CC[C@]2(O)C(=O)CO [prednisone] | without any real effect
ENBREL® | without any real effect
